Laboratory results: DBAASP
≈ marks a conversion by molar mass, not a printed value.

What was measured:
Experiment in all cases: ≥ marks a high value that may be exact or a test limit, other limits are often not marked, values filed in µg/mL are converted to µM
[1] = test system: Enterobacter cloacae ATCC 13047
[2] = test system: Pseudomonas aeruginosa IS350#
[3] = test system: Escherichia coli IS37#
[4] = test system: Enterococcus faecalis ATCC 29212
[5] = test system: Pseudomonas aeruginosa CMCCB 1010
[6] = test system: Candida albicans ATCC 90028
[7] = test system: Pseudomonas aeruginosa ATCC 27853
[8] = test system: Candida parapsilosis ATCC 22019
[9] = test system: Staphylococcus aureus ATCC 25923
[10] = test system: Escherichia coli IS117#
[11] = test system: Klebsiella pneumoniae IS59#
[12] = test system: Escherichia coli ATCC 25922
[13] = test system: Klebsiella pneumoniae ATCC 700603
[14] = test system: Candida albicans ATCC 2002
[15] = test system: Shigella dysenteriae
[16] = test system: Candida glabrata
[17] = test system: Pseudomonas aeruginosa ATCC 9027
[18] = test system: Streptococcus agalactiae
[19] = test system: Mycobacterium tuberculosis H37Rv
[20] = test system: Candida albicans
[21] = test system: Mycobacterium tuberculosis
[22] = test system: Staphylococcus epidermidis KCTC 3096
[23] = test system: Bacillus subtilis KCTC 1918
[24] = test system: Pseudomonas aeruginosa KCTC 1637
[25] = test system: Salmonella typhimurium KCTC 1926
[26] = test system: Trichosporon beigelii KCTC 7707
[27] = test system: Candida albicans TIMM 1768
[28] = test system: Enterococcus faecalis V583
[29] = test system: Staphylococcus aureus USA 100
[30] = test system: Weissella viridescens NCDO 1655
[31] = test system: Latilactobacillus sakei 706
[32] = test system: Lactiplantibacillus plantarum UI50
[33] = test system: Latilactobacillus sakei NCDO 2714
[34] = test system: Lacticaseibacillus casei subsp. casei NCDO 161
[35] = test system: Lactiplantibacillus plantarum 965
[36] = test system: Pediococcus pentosaceus Pac1.0
[37] = test system: Lacticaseibacillus casei NCDO 2713
[38] = test system: Pediococcus pentosaceus NCDO 990
[39] = test system: Carnobacterium maltaromaticum UI49

Question: How did the MIC [1] turn out when CC[C@H](C)[C@@H]1NC(=O)[C@H](C)NC(=O)[C@@H](NC(=O)[C@H](Cc2ccccc2)NC(=O)[C@@H](NC(=O)[C@H](C)NC(=O)[C@@H]2CCCN2C(=O)CNC(=O)[C@@H](NC(=O)[C@H](CCCCN)NC(=O)[C@H](C)NC(=O)[C@H](C)NC(=O)[C@@H](NC(=O)[C@H](CCCN=C(N)N)NC(=O)[C@H](CC(C)C)NC(=O)[C@@H](NC(=O)[C@H](C)NC(=O)[C@@H]2CCCN2C(=O)[C@H](CC(C)C)NC(=O)[C@@H](N)Cc2ccccc2)C(C)C)C(C)C)C(C)C)C(C)C)CSSC[C@@H](C(=O)O)NC(=O)[C@H](CCCCN)NC(=O)[C@H](CCC(N)=O)NC(=O)[C@H]([C@@H](C)O)NC1=O [FLPAVLRVAAKVGPAVFCAITQKC] was run?
Answer: Its MIC is 2 µM (≈ 5 µg/mL).

Question: And the MIC [2]?
Answer: The MIC was 4 µM (≈ 9.99 µg/mL).

Question: What about the MIC [3] of the same molecule?
Answer: The MIC was 20 µM (≈ 50 µg/mL).

Question: What about the MIC [4] of the same molecule?
Answer: Its MIC is 4 µM (≈ 9.99 µg/mL).

Question: And the MIC [5]?
Answer: The MIC was 4 µM (≈ 9.99 µg/mL).

Question: What about the MIC [6] of the same molecule?
Answer: Its MIC is 4 µM (≈ 9.99 µg/mL).

Question: And the MIC [7]?
Answer: The MIC was 2 µM (≈ 5 µg/mL).

Question: What about the MIC [8] of the same molecule?
Answer: The MIC was 2 µM (≈ 5 µg/mL).

Question: And the MIC [9]?
Answer: The MIC was 0.999 µM (≈ 2.5 µg/mL).

Question: And the MIC [10]?
Answer: The MIC was 20 µM (≈ 50 µg/mL).

Question: What about the MIC [11] of the same molecule?
Answer: The MIC was 2 µM (≈ 5 µg/mL).

Question: And the MIC [12]?
Answer: Its MIC is 0.999 µM (≈ 2.5 µg/mL).

Question: What about the MIC [13] of the same molecule?
Answer: Its MIC is 4 µM (≈ 9.99 µg/mL).

Question: What about the MIC [14] of the same molecule?
Answer: Its MIC is 0.2 µM (≈ 0.5 µg/mL).

Question: And the MIC [15]?
Answer: The MIC was 4 µM (≈ 9.99 µg/mL).

Question: What does the source list for CC[C@H](C)[C@H](NC(=O)[C@H](CC(C)C)NC(=O)[C@H](CO)NC(=O)[C@@H]1CCCN1C(=O)[C@@H](NC(=O)[C@H](C)NC(=O)[C@H](CCCCN)NC(=O)[C@H](CCSC)NC(=O)[C@H](C)NC(=O)[C@H](CC(C)C)NC(=O)[C@H](CCCCN)NC(=O)CNC(=O)[C@H](CC(C)C)NC(=O)[C@H](Cc1ccccc1)NC(=O)CNC(=O)[C@H](Cc1c[nH]c2ccccc12)NC(=O)[C@@H](N)Cc1ccccc1)C(C)C)C(=O)NCC(=O)NCC(=O)N[C@@H](CC(N)=O)C(=O)N[C@@H](CCCCN)C(=O)N[C@@H](CCCCN)C(=O)O [FWGFLGKLAMKAVPSLIGGNKK]?
Answer: MIC [16]: 25 µM (≈ 59.1 µg/mL); MIC [17]: 5 µM (≈ 11.8 µg/mL); MIC [18]: 10 µM (≈ 23.6 µg/mL); MIC [9]: 5 µM (≈ 11.8 µg/mL); MIC [19]: 13.6 µM (≈ 32.1 µg/mL); MIC [20]: 3.12 µM (≈ 7.38 µg/mL); MIC [12]: 24 µM (≈ 56.7 µg/mL); MIC [21]: 8.5 µM (≈ 20.1 µg/mL)

Question: Which results are given for CC[C@H](C)[C@H](NC(=O)CNC(=O)[C@@H](NC(=O)[C@H](CCCCN)NC(=O)[C@H](CCCCN)NC(=O)[C@H](Cc1ccccc1)NC(=O)[C@H](CC(C)C)NC(=O)[C@H](CCCCN)NC(=O)[C@H](Cc1c[nH]c2ccccc12)NC(=O)[C@@H](N)CCCCN)[C@@H](C)CC)C(=O)NCC(=O)N[C@@H](CCCCN)C(=O)N[C@@H](Cc1ccccc1)C(=O)N[C@@H](CC(C)C)C(N)=O [KWKLFKKIGIGKFL]?
Answer: MIC [22]: 6.25 µM (≈ 10.7 µg/mL); MIC [23]: 6.25 µM (≈ 10.7 µg/mL); MIC [24]: 3.12 µM (≈ 5.32 µg/mL); MIC [25]: 1.56 µM (≈ 2.66 µg/mL); MIC [26]: 8.84 µM (≈ 15.1 µg/mL); MIC [27]: 12.5 µM (≈ 21.3 µg/mL)

Question: Which MIC [28] does the source give for CC(C)C[C@H](NC(=O)[C@H](CC(C)C)NC(=O)[C@@H](N)CC(C)C)C(=O)NCC(=O)N[C@@H](C)C(=O)N[C@@H](C)C(=O)N[C@H](C(=O)NCC(=O)O)[C@@H](C)O [LLLGAATG] here?
Answer: Its MIC is no less than 86.7 µM.

Question: How did the MIC [29] turn out when NC(=O)[C@H](CCCN=C(N)N)NC(=O)[C@H](CO)NC(=O)[C@H](CCCN=C(N)N)NC(=O)[C@@H](N)CO [SRSR] was run?
Answer: Its MIC is no less than 100 µM.

Question: With CC[C@H](C)[C@H](NC(=O)[C@H](C)NC(=O)[C@@H](NC(=O)[C@H](C)NC(=O)CNC(=O)[C@H](CCSC)NC(=O)[C@H](CCC(N)=O)NC(=O)[C@H](CC(C)C)NC(=O)[C@H](CO)NC(=O)[C@@H](N)Cc1ccc(O)cc1)[C@@H](C)O)C(=O)N[C@@H](CCCCN)C(=O)N[C@@H](CCC(N)=O)C(=O)N[C@H](C(=O)N[C@@H](CCCCN)C(=O)N[C@@H](CCCCN)C(=O)N[C@@H](CC(C)C)C(=O)N[C@@H](Cc1ccccc1)C(=O)N[C@@H](CCCCN)C(=O)N[C@@H](CCCCN)C(=O)N[C@@H](Cc1c[nH]c2ccccc12)C(=O)NCC(=O)N[C@@H](Cc1c[nH]c2ccccc12)C(=O)O)C(C)C [YSLQMGATAIKQVKKLFKKWGW] as the molecule, how does the MIC [30] read?
Answer: Its MIC is 0.05 µM (≈ 0.131 µg/mL).

Question: And the MIC [31]?
Answer: The MIC was 1 µM (≈ 2.61 µg/mL).

Question: And the MIC [32]?
Answer: Its MIC is 6 µM (≈ 15.7 µg/mL).

Question: What about the MIC [33] of the same molecule?
Answer: Its MIC is 0.25 µM (≈ 0.653 µg/mL).

Question: What about the MIC [34] of the same molecule?
Answer: The MIC was 0.25 µM (≈ 0.653 µg/mL).

Question: And the MIC [35]?
Answer: The MIC was 0.5 µM (≈ 1.31 µg/mL).

Question: What about the MIC [36] of the same molecule?
Answer: Its MIC is 0.1 µM (≈ 0.261 µg/mL).

Question: And the MIC [37]?
Answer: The MIC was 6 µM (≈ 15.7 µg/mL).

Question: What about the MIC [38] of the same molecule?
Answer: Its MIC is 6 µM (≈ 15.7 µg/mL).

Question: What about the MIC [39] of the same molecule?
Answer: Its MIC is 6 µM (≈ 15.7 µg/mL).
